Test results as given in patent US20250009632A1, “HEIGHT-ADJUSTABLE SPRINKLER” (BTGIN CO., LTD., priority 2021, published 2025).

Assays:
S. mutans [1] = assay: Analysis of dental plaque reduction (S. mutans attached to glass tube wall, absorbance at 550 nm); type: cell-based, Streptococcus mutans
Protocol: • 1) A brain heart infusion (BHI) broth (5 ml) containing 1% sucrose was added in 50 ml glass tube, and 50 μl of each of sample extracts by concentrations shown in Table 2 below was added. For a control group, sterilized water was used instead of sample extracts. • 2) S. mutans was inoculated to reach 10^5. • 3) The glass tube was cultured statically in an incubator at 37° C. for 24 hours while tilted at 30°. • 4) After culturing, 5 ml of 0.5 M NaOH solution was added to suspend the cells attached to the wall. • 5) One milliliter of suspension was taken and measured for absorbance at 550 nm. S. mutans strain was cultured statically for 24 hours after inoculation while tilted at 30°. When the culture medium was carefully poured out after the static culture, it was observed that bacteria were attached to the wall of the glass tube (FIG. 1, red arrow). Thereafter, the bacteria were suspended by addition of 0.5 M NaOH, and 1 ml of the suspended solution was measured for absorbance at 550 nm. As a result, there was a reduction in dental plaque from a BTEX-K concentration of 50 μg/ml.

S. mutans [2] = assay: Amount of organic acid produced in dental plaque (HPLC of S. mutans culture medium); type: cell-based, Streptococcus mutans; conditions: 48 h culture, high concentration (100 μg/ml)
Protocol: • 1) To a brain heart infusion (BHI) broth (2 ml), 20 μl of each of sample extracts by concentrations in Table 3 below was added. For a control group, sterilized water was used instead of sample extracts. • 2) S. mutans was inoculated to reach 10^5-10^6. • 3) The cells were cultured in an incubator at 37° C. for 48 hours. • 4) The amount of the acid secreted in the medium was measured using HPLC.
**HPLC: analyzed by the joint equipment research lab of Dankook University Industry-Academia Cooperation (Citric, pyruvic, succinic, lactic, formic, acetic, propionic, isobutyric, butyric, and isovaleric acid).
S. mutans strain was inoculated into 2 ml of the brain heart infusion (BHI) liquid medium at a concentration of 1×10^5 CFU/ml, and a predetermined concentration of each sample was injected, followed by culturing for 48 hours. The culture was centrifuged at 13,000 rpm for 5 minutes, and then the supernatant was transferred to a new tube and filtered with a 0.45 μm syringe filter. Thereafter, HPLC analysis was performed. HPLC analysis conditions are as follows. Mobile phase (Isocratic elution): 10 mM potassium phosphate monobasic (pH 3, a phosphoric acid salt)/MeOH=(98/2), Column oven Temp.: 30° C., flow rate: 1 ml/min, wavelength: 220 nm, and injection amount: 10 μl

For `CC(C)=CCC[C@](C)(O[C@@H]1O[C@H](CO)[C@@H](O)[C@H](O)[C@H]1O)[C@H]1CC[C@]2(C)[C@@H]1[C@H](O)C[C@@H]1[C@@]3(C)CC[C@H](O)C(C)(C)[C@@H]3CC[C@]12C` [ginsenoside compound K], the “growth of S. mutans strain” value (S. mutans [1]; at 100 μg/ml, as seen in the dental plaque reduction experiment) was “inhibited”, the “concentration at which dental plaque reduction was observed” value (S. mutans [1]; summary statement, absorbance at 550 nm) was 20 µg/mL and the “reduction in lactic acid content compared to the control group” value (S. mutans [2]; HPLC, p<0.0001) was “approximately 2 fold”. The “HPLC peak at retention time of around 4.6 minutes (lactic acid)” value (S. mutans [2]; vs control) was “decreased”.
